Patent EP0162545A2, “Enhanced bioconversion processes” (BETZ EUROPE, INC., priority 1984, dated 1985)

Experiments:
Klebsiella [1] = format: cell-based
Experimental: At 0.05 µg/mL level, TOC removal was equivalent to the untreated control. When BNS concentrations of 0.5 µg/mL were used, TOC removal ceased and in the second series of experiments, TOC levels increased sharply at 0.5 - 2 µg/mL concentrations of BNS. Similar results were obtained when BNS was used to treat bacteria growing in the glucose salts medium. No increases in TOC removal were seen. The TOC concentration increased rapidly at BNS concentration of 0.5 - 2 ppm only to fall back to control levels at 5 ppm. The cells then added TOC to the medium again from […] concentrations of BNS. This middle range spike in TOC (0.5-2 µg/mL BNS) was thought to be caused by excessive extra cellular polymer sloughing and limited cellular death as evidenced by the viability counts in the. 0.5 - 2 µg/mL BNS range. […] The dissolved oxygen concentration was decreased in the presence of BNS at concentrations of 0.05 - 1 µg/mL but at no concentration of BNS was the removal greater than the control level.
This set of experiments tends to make the BNS range of useful concentrations even lower than noted before. […] DO removal was seriously affected by concentrations of BNS that were ≥ 0.5 µg/mL. In short, it would appear that BNS would have to be used at concentrations ≤ 0.5 µg/mL in order to prevent the upset of a waste treatment facility by killing off the microbial populations. […]

[2] = BNS breakdown kinetics in deionized water, spectrophotometric at 320 nm; format: physicochemical
Experimental: BNS stock was composed of 10% BNS, 5% Triton X-114 and 85% carbitol acetate. BNS was diluted in deionized water to the appropriate 10X concentration desired. Breakdown kinetics were measured in a deionized H20/BNS system by spectrophotometric measurement at 320 nm and a BNS half life was determined to be 7 hours. Continuous and separate pumping of uncoupler was by a Masterflex 7552-10 peristalic pump (Cole Parmer, Chicago, IL) through silicon tubing lines into the bioreactor. Feed flow was split 90% organic feed, 10% BNS feed for total flow. New uncoupler feed was made up daily from the previously mentioned stock, since there was only 10% of the original BNS concentration left before the new daily solution of BNS feed was begun. BNS dose of 1, 2 and 5 ppm was based on the total bulk feed. Reservoir solutions were mixed constantly on a Fisher versamix magnetic stir plate at a speed of 0.4/1.0 to prevent settling out of chemical.

Klebsiella [3] = experiment: Dissolved oxygen removal in nutrient broth; format: cell-based; details: 5 hours
Experimental: Experiments to look at the above conclusions in depth were performed. In these experiments, cultures of Klebsiella were challenged with various concentrations of BNS and the effects on C02 evolution from glucose, viability, TOC (Total Organic Carbon), TIC (Total Inorganic Carbon) production, removal, and DO (Dissolved Oxygen) removal were determined. Concentrations of BNS from 0.05 to 100 µg/mL were used. […] CO2 evolution decreased after 5 gg/mL. […] The viability dropped off after that with 99% inhibition at concentrations somewhere between 10 - 20 µg/mL. Organic carbon removal gave the most puzzling pattern. […] CO2 was produced, however, as reflected by the C02 blowoff experiments and the TIC data. The organic carbon being oxidized (removed) must have been cancelled out by an organic carbon addition caused by limited bacterial lysis. This phenomenon was investigated again. […]
(§1) The experiments coordinating the measurements of C02 evolution, TOC reduction, viable count, and dissolved oxygen (DO) reduction were performed as follows: C02 evolution by Klebsiella was measured as described previously using a narrowed set of BNS concentrations. […] These cells were used to inoculate 19 mL quantities of fresh nutrient broth (1 mL inoculum) in baffled shake flasks. […]

Klebsiella [4] = format: cell-based; remark: listed apart in the source
Experimental: (§2) Experiments to look at the above conclusions in depth were performed. In these experiments, cultures of Klebsiella were challenged with various concentrations of BNS and the effects on C02 evolution from glucose, viability, TOC (Total Organic Carbon), TIC (Total Inorganic Carbon) production, removal, and DO (Dissolved Oxygen) removal were determined. Concentrations of BNS from 0.05 to 100 µg/mL were used. […] CO2 evolution decreased after 5 gg/mL. […] The viability dropped off after that with 99% inhibition at concentrations somewhere between 10 - 20 µg/mL. Organic carbon removal gave the most puzzling pattern. […] CO2 was produced, however, as reflected by the C02 blowoff experiments and the TIC data. The organic carbon being oxidized (removed) must have been cancelled out by an organic carbon addition caused by limited bacterial lysis. This phenomenon was investigated again. […] It appeared that 5 ppm BNS would be the maximum concentration that could be used for the desired effect, with the majority of favorable results occurring in the 0.05 - 2 ppm range.
At 0.05 µg/mL level, TOC removal was equivalent to the untreated control. When BNS concentrations of 0.5 µg/mL were used, TOC removal ceased and in the second series of experiments, TOC levels increased sharply at 0.5 - 2 µg/mL concentrations of BNS. Similar results were obtained when BNS was used to treat bacteria growing in the glucose salts medium. No increases in TOC removal were seen. The TOC concentration increased rapidly at BNS concentration of 0.5 - 2 ppm only to fall back to control levels at 5 ppm. The cells then added TOC to the medium again from 5 - 1000 µg/mL concentrations of BNS. […]
as §1

Klebsiella [5] = experiment: Total organic carbon removal in nutrient broth shake flasks; format: cell-based; details: for % Org. Carbon Removal / Tot. Inorg. Carbon / Tot. Org. Carbon / Total Carbon: 5 Hours
Experimental: as §2
The experiments coordinating the measurements of C02 evolution, TOC reduction, viable count, and dissolved oxygen (DO) reduction were performed as follows: C02 evolution by Klebsiella was measured as described previously using a narrowed set of BNS concentrations. At the same time, Klebsiella cells grown overnight in nutrient broth were standardized into an inoculum of 250 Klett units. These cells were used to inoculate 19 mL quantities of fresh nutrient broth (1 mL inoculum) in baffled shake flasks. These shake flasks were placed into water bath shakers at 37°C and allowed to shake for 5 hours. Concentrations of BNS equivalent to the C02 blowoff experiment were added to the flasks at the beginning of the experiment. Controls containing no BNS were included for comparisons. Total organic carbon measurements were taken after 5 hours incubation. Viable counts were done at 1 hour, 3 hours, and 5 hours. A parallel experiment was performed using the same setup except that after BNS additions, the flasks were shaken for 30 minutes and then held stationary. DO measurements were taken at 5 hours incubation with the use of a YSI Model 54A oxygen meter.

SMILES: O=[N+]([O-])C(Br)=Cc1ccccc1 [BNS, beta-bromo-beta-nitrostyrene]
- concentrations seriously affecting DO removal (Klebsiella [1]): ≥ 500 ng/mL
- toxic concentration (Klebsiella [1]): 0.5 to 1 µg/mL
- half-life ([2]; deionized water, deionized H20/BNS system, 320 nm): 7 h
- original BNS concentration left ([2]; diluted feed in deionized water, before the new daily solution): 10%
- concentrations at which oxygen was consumed at levels approaching control values (Klebsiella [3]): up to 2 ppm
- concentration for 99% inhibition of viability (Klebsiella [4]): 10000 to 20000 ng/mL
- concentrations at which cells retained viability equal to the control level (Klebsiella [4]): up to 2 µg/mL
- concentrations of significant toxicity (Klebsiella [4]): 5000 to 10000 ng/mL
- % Org. Carbon Removal (Klebsiella [5]; BNS 0.05 µg/mL): 37%
- Tot. Inorg. Carbon (Klebsiella [5]; BNS 0.05 µg/mL): 145 µg/mL
- Tot. Org. Carbon (Klebsiella [5]; BNS 0.05 µg/mL): 2,205 µg/mL
- Total Carbon (Klebsiella [5]; BNS 0.05 µg/mL): 2,350 µg/mL
- % Org. Carbon Removal (Klebsiella [5]; BNS 0.1 µg/mL): +9%
- Tot. Inorg. Carbon (Klebsiella [5]; BNS 0.1 µg/mL): 155 µg/mL
- Tot. Org. Carbon (Klebsiella [5]; BNS 0.1 µg/mL): 3,845 µg/mL
- Total Carbon (Klebsiella [5]; BNS 0.1 µg/mL): 4,000 µg/mL
- % Org. Carbon Removal (Klebsiella [5]; BNS 0.5 µg/mL): 1%
- Tot. Inorg. Carbon (Klebsiella [5]; BNS 0.5 µg/mL): 145 µg/mL
- Tot. Org. Carbon (Klebsiella [5]; BNS 0.5 µg/mL): 3,455 µg/mL
- Total Carbon (Klebsiella [5]; BNS 0.5 µg/mL): 3,600 µg/mL
- % Org. Carbon Removal (Klebsiella [5]; BNS 1.0 µg/mL): 6%
- Tot. Inorg. Carbon (Klebsiella [5]; BNS 1.0 µg/mL): 120 µg/mL
- Tot. Org. Carbon (Klebsiella [5]; BNS 1.0 µg/mL): 3,280 µg/mL
- Total Carbon (Klebsiella [5]; BNS 1.0 µg/mL): 3,400 µg/mL
- % Org. Carbon Removal (Klebsiella [5]; BNS 2 µg/mL): +16%
- Tot. Inorg. Carbon (Klebsiella [5]; BNS 2 µg/mL): 96 µg/mL
- Tot. Org. Carbon (Klebsiella [5]; BNS 2 µg/mL): 4,054 µg/mL
- Total Carbon (Klebsiella [5]; BNS 2 µg/mL): 4,150 µg/mL
- % Org. Carbon Removal (Klebsiella [5]; BNS 5 µg/mL): +35%
- Tot. Inorg. Carbon (Klebsiella [5]; BNS 5 µg/mL): 63 µg/mL
- Tot. Org. Carbon (Klebsiella [5]; BNS 5 µg/mL): 4,737 µg/mL
- Total Carbon (Klebsiella [5]; BNS 5 µg/mL): 4,800 µg/mL
- % Org. Carbon Removal (Klebsiella [5]; BNS 10 µg/mL): +11%
- Tot. Inorg. Carbon (Klebsiella [5]; BNS 10 µg/mL): 12 µg/mL
- Tot. Org. Carbon (Klebsiella [5]; BNS 10 µg/mL): 3,888 µg/mL
- Total Carbon (Klebsiella [5]; BNS 10 µg/mL): 3,900 µg/mL
- % Org. Carbon Removal (Klebsiella [5]; BNS 20 µg/mL): +19%
- Tot. Inorg. Carbon (Klebsiella [5]; BNS 20 µg/mL): 9 µg/mL
- Tot. Org. Carbon (Klebsiella [5]; BNS 20 µg/mL): 4,191 µg/mL
- Total Carbon (Klebsiella [5]; BNS 20 µg/mL): 4,200 µg/mL
- % Org. Carbon Removal (Klebsiella [5]; BNS 50 µg/mL): +31%
- Tot. Inorg. Carbon (Klebsiella [5]; BNS 50 µg/mL): 7 µg/mL
- Tot. Org. Carbon (Klebsiella [5]; BNS 50 µg/mL): 4,593 µg/mL
- Total Carbon (Klebsiella [5]; BNS 50 µg/mL): 4,600 µg/mL
- % Org. Carbon Removal (Klebsiella [5]; BNS 100 µg/mL): +102%
- Tot. Inorg. Carbon (Klebsiella [5]; BNS 100 µg/mL): 7 µg/mL
- Tot. Org. Carbon (Klebsiella [5]; BNS 100 µg/mL): 7,093 µg/mL
- Total Carbon (Klebsiella [5]; BNS 100 µg/mL): 7,100 µg/mL
- concentrations resulting in increases in TOC (Klebsiella [5]; nutrient broth, 5 hours): ≥ 2 µg/mL
